Results taken from ChEMBL document CHEMBL4483862, “Open-source discovery of chemical leads for next-generation chemoprotective antimalarials” (2018).

Test system: Plasmodium berghei
Experiment: Luciferase/luciferin-expressing antifolate-resistant parasites were used to infect a culture of HepG2 cells that were pre-incubated with compounds. Infected hepatocytes emit light due to the luciferase reaction. Assay results are presented as the percent inhibition of light emission compared to control. […]
Assay type: functional
Settings: sporozoite; for IC90: read-out: LUCIFERASE INFECTION ASSAY - IC90

Row | SMILES | IC90 [µM] | further results
1 | CNC(=O)c1nnsc1[S+]([O-])c1ccc(Cl)cc1 (configuration not stated) | > 10.9 | IC50 (FFLUC_HILL_SLOPE 1.33, FFLUC_R_SQUARED 0.248, HEPG2TOX_HILL_SLOPE 10.3, HEPG2TOX_R_SQUARED 0.738, read-out: LUCIFERASE INFECTION ASSAY - IC50): > 10.9 µM
2 | Cc1cc(-c2ccccc2)[s+]c(-c2ccccc2)c1 | > 10 | IC50 (FFLUC_HILL_SLOPE 1.28, FFLUC_R_SQUARED 0.852, PBLUC_HILL_SLOPE 0.191, PBLUC_R_SQUARED 0.106, read-out: LUCIFERASE INFECTION ASSAY - IC50): > 10 µM
3 | CSc1sc(C(=O)NNC(=O)Nc2ccccc2)c2c1C=CCC2 | > 9.18 | IC50 (FFLUC_HILL_SLOPE 1.34, FFLUC_R_SQUARED 0.714, read-out: LUCIFERASE INFECTION ASSAY - IC50): > 9.18 µM
4 | COc1cc(/C=C(\C#N)c2nc3ccccc3[nH]2)ccc1OC(=O)c1cc2c(C)nn(-c3ccccc3)c2s1 | > 10 | IC50 (FFLUC_HILL_SLOPE 1.24, FFLUC_R_SQUARED 0.777, PBLUC_HILL_SLOPE 2.61, PBLUC_R_SQUARED 0.768, read-out: LUCIFERASE INFECTION ASSAY - IC50): 5.91 µM
5 | Cc1c(-c2ccccc2)nc2ccccc2c1C(=O)Nc1ccc2c(c1)OCCO2 | 6.7 | IC50 (FFLUC_HILL_SLOPE 1.33, FFLUC_R_SQUARED 0.515, PBLUC_HILL_SLOPE 1.27, PBLUC_R_SQUARED 0.667, read-out: LUCIFERASE INFECTION ASSAY - IC50): 1.19 µM
6 | CC(C)(C)c1ccc(CN2C(=O)CS/C2=C\C(=O)c2ccc(C(C)(C)C)cc2)cc1 | > 10 | IC50 (FFLUC_HILL_SLOPE 1.26, FFLUC_R_SQUARED 0.691, PBLUC_HILL_SLOPE 1.17, PBLUC_R_SQUARED 0.615, read-out: LUCIFERASE INFECTION ASSAY - IC50): 1.59 µM
7 | Cc1onc(-c2c(Cl)cccc2Cl)c1-c1csc(-c2ccccc2Cl)n1 | 6.63 | IC50 (FFLUC_HILL_SLOPE 1.25, FFLUC_R_SQUARED 0.188, HEPG2TOX_HILL_SLOPE 2.28, HEPG2TOX_R_SQUARED 0.946, PBLUC_HILL_SLOPE 2.98, PBLUC_R_SQUARED 0.455, read-out: LUCIFERASE INFECTION ASSAY - IC50): 3.17 µM
8 | Cc1ccc(-c2nc(CSc3nc(C)c(C)n3CC3CCCO3)co2)c(C)c1 (configuration not stated) | > 10 | IC50 (FFLUC_HILL_SLOPE 1.24, FFLUC_R_SQUARED 0.0904, HEPG2TOX_HILL_SLOPE 3.11, HEPG2TOX_R_SQUARED 0.82, read-out: LUCIFERASE INFECTION ASSAY - IC50): > 10 µM
9 | Cc1cc(C2=NNC(=NC3CC3)SC2)c(C)n1-c1ccccn1 | 1.61 | IC50 (FFLUC_HILL_SLOPE 1.22, FFLUC_R_SQUARED 0.875, PBLUC_HILL_SLOPE 1.09, PBLUC_R_SQUARED 0.799, read-out: LUCIFERASE INFECTION ASSAY - IC50): 0.213 µM
10 | FC(F)(F)c1cc(N=C(C/C=N/c2cc(C(F)(F)F)cc(C(F)(F)F)c2)c2ccc(Cl)cc2)cc(C(F)(F)F)c1 | 0.673 | IC50 (FFLUC_HILL_SLOPE 1.3, FFLUC_R_SQUARED 0.132, PBLUC_HILL_SLOPE 15.7, PBLUC_R_SQUARED 0.5, read-out: LUCIFERASE INFECTION ASSAY - IC50): 0.585 µM
11 | N#CC(C#N)=C1C=C(c2ccc(O)cc2)Oc2ccccc21 | > 10 | IC50 (FFLUC_HILL_SLOPE 1.23, FFLUC_R_SQUARED 0.408, read-out: LUCIFERASE INFECTION ASSAY - IC50): > 10 µM
12 | CCN(Cc1ccc2c(c1)OCO2)C(=O)c1oc2c(F)cccc2c1C | > 10 | IC50 (FFLUC_HILL_SLOPE 1.31, FFLUC_R_SQUARED 0.0559, read-out: LUCIFERASE INFECTION ASSAY - IC50): > 10 µM
13 | CCOC(=O)c1c(C)noc1/C(C)=N/OC(=O)Nc1cccc(C(F)(F)F)c1 | 3.98 | IC50 (FFLUC_HILL_SLOPE 1.36, FFLUC_R_SQUARED 0.14, PBLUC_HILL_SLOPE 8.59, PBLUC_R_SQUARED 0.59, read-out: LUCIFERASE INFECTION ASSAY - IC50): 3.08 µM
14 | Nc1c(C(=O)Nc2cccc(Cl)c2)sc2nc3c(c(-c4cccnc4)c12)CCC3 | > 7.84 | IC50 (FFLUC_HILL_SLOPE 1.24, FFLUC_R_SQUARED 0.605, PBLUC_HILL_SLOPE 2.61, PBLUC_R_SQUARED 0.023, read-out: LUCIFERASE INFECTION ASSAY - IC50): > 7.84 µM
15 | O=C(OCCSc1ccc([N+](=O)[O-])c2nonc12)c1ccccc1 | > 9.56 | IC50 (FFLUC_HILL_SLOPE 1.36, FFLUC_R_SQUARED 0.568, HEPG2TOX_HILL_SLOPE 2.89, HEPG2TOX_R_SQUARED 0.849, PBLUC_HILL_SLOPE 0.85, PBLUC_R_SQUARED 0.48, read-out: LUCIFERASE INFECTION ASSAY - IC50): 5.19 µM
16 | Cc1sc(-n2cccc2)c(C(=O)Nc2cccc(-c3nn[nH]n3)c2)c1C | > 10 | IC50 (FFLUC_HILL_SLOPE 1.33, FFLUC_R_SQUARED 0.778, read-out: LUCIFERASE INFECTION ASSAY - IC50): > 10 µM

Row | SMILES | IC90 [µM] | further results
17 | COc1ccc(S(=O)(=O)OCCSc2ccc([N+](=O)[O-])c3nonc23)cc1 | > 8.02 | IC50 (FFLUC_HILL_SLOPE 1.23, FFLUC_R_SQUARED 0.562, read-out: LUCIFERASE INFECTION ASSAY - IC50): > 8.02 µM
18 | Nc1ccc(-c2cnn3c(N4CCOCC4)ccnc23)cc1 | 8.75 | IC50 (FFLUC_HILL_SLOPE 1.28, FFLUC_R_SQUARED 0.893, PBLUC_HILL_SLOPE 0.747, PBLUC_R_SQUARED 0.679, read-out: LUCIFERASE INFECTION ASSAY - IC50): 0.462 µM
19 | Nc1nccnc1C(=O)Nc1ccc(C23CC4CC(CC(C4)C2)C3)cc1 | 9.45 | IC50 (FFLUC_HILL_SLOPE 1.35, FFLUC_R_SQUARED 0.9, PBLUC_HILL_SLOPE 1.78, PBLUC_R_SQUARED 0.606, read-out: LUCIFERASE INFECTION ASSAY - IC50): 2.75 µM
20 | Cc1ccc(C)c(-n2c(SCCOc3ccccc3C)nnc2-c2ccccc2Cl)c1 | > 10 | IC50 (FFLUC_HILL_SLOPE 1.3, FFLUC_R_SQUARED 0.027, HEPG2TOX_HILL_SLOPE 7.63, HEPG2TOX_R_SQUARED 0.817, read-out: LUCIFERASE INFECTION ASSAY - IC50): > 10 µM
21 | COC(=O)Cc1[nH]n(-c2nc3ccccc3s2)c(=O)c1C(C)=NCCO | 3.67 | IC50 (FFLUC_HILL_SLOPE 1.26, FFLUC_R_SQUARED 0.909, HEPG2TOX_HILL_SLOPE 2.15, HEPG2TOX_R_SQUARED 0.817, PBLUC_HILL_SLOPE 1.27, PBLUC_R_SQUARED 0.77, read-out: LUCIFERASE INFECTION ASSAY - IC50): 0.646 µM
22 | Cc1ccc(NC(=O)c2cnn(C(C)(C)C)c2C)cc1F | 6.02 | IC50 (FFLUC_HILL_SLOPE 1.31, FFLUC_R_SQUARED 0.708, PBLUC_HILL_SLOPE 0.501, PBLUC_R_SQUARED 0.734, read-out: LUCIFERASE INFECTION ASSAY - IC50): 0.0753 µM
23 | Cc1ccc(C(=O)Nc2nc3ccccc3[nH]2)cc1F | 4.06 | IC50 (FFLUC_HILL_SLOPE 1.36, FFLUC_R_SQUARED 0.795, PBLUC_HILL_SLOPE 11.8, PBLUC_R_SQUARED 0.45, read-out: LUCIFERASE INFECTION ASSAY - IC50): 3.37 µM
24 | CCCc1ccc(C(=O)C(C)Sc2nnc(Cc3cccc4ccccc34)n2N)cc1 (configuration not stated) | > 10 | IC50 (FFLUC_HILL_SLOPE 1.29, FFLUC_R_SQUARED 0.471, read-out: LUCIFERASE INFECTION ASSAY - IC50): > 10 µM
25 | CC(C)c1ccc(C(=O)Nc2ccccn2)cc1 | > 13.7 | IC50 (FFLUC_HILL_SLOPE 1.25, FFLUC_R_SQUARED 0.914, PBLUC_HILL_SLOPE 0.406, PBLUC_R_SQUARED 0.482, read-out: LUCIFERASE INFECTION ASSAY - IC50): 1.63 µM
26 | O=c1c(Cl)c(Cl)cnn1-c1ccc(S(=O)(=O)Oc2ccccc2F)cc1 | 8.08 | IC50 (FFLUC_HILL_SLOPE 1.28, FFLUC_R_SQUARED 0.46, HEPG2TOX_HILL_SLOPE 12.5, HEPG2TOX_R_SQUARED 0.895, PBLUC_HILL_SLOPE 2.73, PBLUC_R_SQUARED 0.311, read-out: LUCIFERASE INFECTION ASSAY - IC50): 3.61 µM
27 | COc1cc(Cl)c(C)cc1-n1c(Sc2ccc([N+](=O)[O-])c(C(F)(F)F)c2)nc2ccccc2c1=O | > 10 | IC50 (FFLUC_HILL_SLOPE 1.25, FFLUC_R_SQUARED 0.54, HEPG2TOX_HILL_SLOPE 0.668, HEPG2TOX_R_SQUARED 0.6, PBLUC_HILL_SLOPE 3.18, PBLUC_R_SQUARED 0.355, read-out: LUCIFERASE INFECTION ASSAY - IC50): 6.33 µM
28 | Cn1c(Sc2ncc([N+](=O)[O-])s2)n[nH]c1=O | 7.26 | IC50 (FFLUC_HILL_SLOPE 1.35, FFLUC_R_SQUARED 0.48, HEPG2TOX_HILL_SLOPE 8.97, HEPG2TOX_R_SQUARED 0.707, PBLUC_HILL_SLOPE 6.36, PBLUC_R_SQUARED 0.781, read-out: LUCIFERASE INFECTION ASSAY - IC50): 5.14 µM
29 | COc1cccc(-c2nccc3n[nH]c(-c4cccc(OC(F)(F)F)c4)c23)c1 | > 10 | IC50 (FFLUC_HILL_SLOPE 1.32, FFLUC_R_SQUARED 0.557, read-out: LUCIFERASE INFECTION ASSAY - IC50): > 10 µM
30 | OC1(c2ccc(OC(F)F)cc2)CN(c2ccc(Br)cc2)C2=[N+]1c1ccccc1CC2 (configuration not stated) | > 10 | IC50 (FFLUC_HILL_SLOPE 1.23, FFLUC_R_SQUARED 0.743, PBLUC_HILL_SLOPE 152, PBLUC_R_SQUARED 0.276, read-out: LUCIFERASE INFECTION ASSAY - IC50): 9.94 µM
31 | Cc1c(C)c(C)c(C(=O)C2CCN(C(=O)c3ccc([N+](=O)[O-])o3)CC2)c(C)c1C | > 8.28 | IC50 (FFLUC_HILL_SLOPE 1.26, FFLUC_R_SQUARED 0.398, read-out: LUCIFERASE INFECTION ASSAY - IC50): > 8.28 µM
